# Values joined by “and” are separate entries in the source; they are usually repeats but may differ in a detail not shown here. Identical values can stand only once.
# Target: Canine Cardiac Phosphodiesterase III
# Experiment: Inhibition of Canine Cardiac Phosphodiesterase III enzyme
# Type: biochemical
# Settings: concentration showing 50% inhibition of Canine Cardiac Phosphodiesterase III enzyme; read-out: IC₅₀
# Description: In Table 5 the concentration of the compounds showing 50% inhibition of Canine Cardiac Phosphodiesterase III enzyme is given.
row,SMILES,IC50
1,"O=C1CCC(c2ccc(N=Cc3c(O)ccc4ccccc34)cc2)=NN1 [Compound F, 6-[4-(2-hydroxynaphtyl)methyleneaminophenyl]-4,5-dihydropyridazin-3(2H)one]",> 10000 nM
2,"COc1ccc(-c2nc3cc(C4=NNC(=O)CC4C)ccc3[nH]2)cc1 (stereo not drawn) [Pimobendan, 4,5-Dihydro-6-(2-(4-methoxyphenyl)-1H-benzimidazol-5-yl)-5-methyl-3(2H)-pyridazinone, reference compound]",2000 nM and 1500 nM
3,"O=C1CCC(c2ccc(N=Cc3ccc(O)cc3O)cc2)=NN1 [Compound A, 6-[4-(2,4-Dihydroxyphenyl)methyleneaminophenyl]-4,5-dihydropyridazin-3(2H)one]",1700 nM
4,"CC1(C)C(=O)Nc2cc3nc(-c4ccncc4)[nH]c3cc21 [BM 14.478, 5,7-Dihydro-7,7-dimethyl-2-(4-pyridinyl)-pyrrolo-(2,3-f)benzimidazol-6(1H)-one, reference compound]",940 nM
5,"CC(=Nc1ccc(C2=NNC(=O)CC2C)cc1)c1ccc(O)cc1O (stereo not drawn) [Compound D, 6-[4-(1-(2,4-Dihydroxyphenyl)ethylidene)aminophenyl]-4,5-dihydro-5-methylpyridazin-3(2H)one]",60 nM and 100 nM

# The remaining lines, values ahead:
row,IC50,SMILES
1,390 nM,"CCC(=Nc1ccc(C2=NNC(=O)CC2)cc1)c1ccc(O)cc1O [Compound E, 6-[4-(1-(2,4-Dihydroxyphenyl)propylidene)aminophenyl]-4,5-dihydropyridazin-3(2H)one]"
2,2 nM,"O=C1CCC(c2ccc(N=C(CCc3ccccc3)c3ccc(O)cc3O)cc2)=NN1 [Compound L, 6-[4-(1-(2,4-dihydroxyphenyl)-3-phenylpropylidene)aminophenyl]-4,5-dihydropyridazin-3(2H)one]"
3,19 nM,O=C1CCC(c2ccc(N=C(c3ccccc3)c3ccc(O)cc3O)cc2)=NN1 [Compound C]
4,140 nM,"CC(=Nc1ccc(-c2ccc(=O)[nH]n2)cc1)c1ccc(O)cc1O [Compound H, 6-[4-(1-(2,4-Dihydroxyphenyl)ethylidene)aminophenyl]pyridazin-3(2H)one]"

# — patent publication EP0359439A1, “Substituted pyridazinones” (ORION-YHTYMÄ OY, priority 1988, dated 1990)
